Results published in ChEMBL document CHEMBL1151759 (J Med Chem, 2008).

What was measured:
[1] = target: T1, Neuropeptide Y receptor type 1 (Homo sapiens, UniProt P25929); assay: Displacement of [3H]propionyl-pNPY from neuropeptide Y1 receptor in human SK-N-MC cells; format: cell-based
T1 sequence (P25929 whole entry): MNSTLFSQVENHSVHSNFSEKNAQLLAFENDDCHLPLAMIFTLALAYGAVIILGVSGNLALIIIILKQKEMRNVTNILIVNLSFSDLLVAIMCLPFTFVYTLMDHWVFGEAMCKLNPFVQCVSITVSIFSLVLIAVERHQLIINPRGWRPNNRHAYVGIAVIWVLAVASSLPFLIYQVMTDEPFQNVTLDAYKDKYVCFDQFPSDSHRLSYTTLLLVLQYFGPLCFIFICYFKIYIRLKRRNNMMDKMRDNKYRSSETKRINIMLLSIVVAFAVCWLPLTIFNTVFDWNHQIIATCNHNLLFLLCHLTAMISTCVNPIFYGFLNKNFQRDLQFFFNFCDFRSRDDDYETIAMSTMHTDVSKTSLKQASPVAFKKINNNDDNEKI

[2] = target: T1, Neuropeptide Y receptor type 1; assay: Displacement of [3H]UR-MK114 from neuropeptide Y1 receptor in human SK-N-MC cells; format: cell-based
[3] = target: T2, Neuropeptide Y receptor type 1 (Homo sapiens) (UniProt P25929)
T2 sequence (whole entry): T1 sequence (P25929 whole entry)

[4] = target: T3, Neuropeptide Y receptor type 2 (Homo sapiens, UniProt P49146); assay: Displacement of Dy-635-pNPY from human neuropeptide Y2 receptor expressed in CHO cells coexpressing Galphaqi5 and aequorin by flow cytometric assay; format: cell-based
T3 sequence (P49146 whole entry): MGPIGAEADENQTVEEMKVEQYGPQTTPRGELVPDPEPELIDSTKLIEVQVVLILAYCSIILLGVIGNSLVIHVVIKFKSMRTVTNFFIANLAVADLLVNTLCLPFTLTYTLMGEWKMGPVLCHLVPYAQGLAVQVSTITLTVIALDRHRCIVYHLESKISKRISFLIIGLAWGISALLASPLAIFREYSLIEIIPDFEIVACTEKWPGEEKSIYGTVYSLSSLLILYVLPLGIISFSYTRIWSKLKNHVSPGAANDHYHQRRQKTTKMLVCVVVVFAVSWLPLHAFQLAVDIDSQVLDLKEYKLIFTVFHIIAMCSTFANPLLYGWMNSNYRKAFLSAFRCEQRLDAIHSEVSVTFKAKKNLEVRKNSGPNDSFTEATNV

[5] = target: T1, Neuropeptide Y receptor type 1; assay: Binding affinity to neuropeptide Y1 receptor in human MCF7 cells; format: cell-based
[6] = target: Neuropeptide Y receptor type 4 (Homo sapiens, UniProt P50391); assay: Displacement of Cy5-[K4]-hPP from human neuropeptide Y4 receptor expressed in CHO cells coexpressing Galphaqi5 and aequorin by flow cytometric assay; format: cell-based
[7] = target: T4, Neuropeptide Y receptor type 5 (Homo sapiens, UniProt Q15761); assay: Displacement of Dy-635-pNPY from human neuropeptide Y5 receptor expressed in HEC-1B cells by flow cytometric assay; format: cell-based
T4 sequence (Q15761 whole entry): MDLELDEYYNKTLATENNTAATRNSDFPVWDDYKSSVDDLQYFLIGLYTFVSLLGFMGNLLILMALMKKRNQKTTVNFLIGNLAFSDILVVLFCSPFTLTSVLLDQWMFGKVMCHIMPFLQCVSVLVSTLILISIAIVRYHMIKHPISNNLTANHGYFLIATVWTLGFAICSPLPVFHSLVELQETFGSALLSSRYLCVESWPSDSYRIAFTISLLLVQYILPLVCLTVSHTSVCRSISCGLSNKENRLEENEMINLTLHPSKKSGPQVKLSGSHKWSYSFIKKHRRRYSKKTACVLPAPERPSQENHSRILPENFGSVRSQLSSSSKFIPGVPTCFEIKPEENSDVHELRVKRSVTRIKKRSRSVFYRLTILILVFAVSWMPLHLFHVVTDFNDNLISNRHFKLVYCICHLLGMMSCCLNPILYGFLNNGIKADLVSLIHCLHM

[8] = target: T1, Neuropeptide Y receptor type 1; assay: Binding affinity to neuropeptide Y1 receptor in human SK-N-MC cells by kinetic experiment; format: cell-based
[9] = target: T1, Neuropeptide Y receptor type 1; assay: Binding affinity to neuropeptide Y1 receptor in human SK-N-MC cells; format: cell-based
[10] = Chemical stability of compound assessed as half life; format: physicochemical
[11] = target: T1, Neuropeptide Y receptor type 1; assay: Binding affinity to neuropeptide Y1 receptor in human MCF7 cells by kinetic experiment; format: cell-based

Sequence of Neuropeptide Y receptor type 4 (P50391 whole entry): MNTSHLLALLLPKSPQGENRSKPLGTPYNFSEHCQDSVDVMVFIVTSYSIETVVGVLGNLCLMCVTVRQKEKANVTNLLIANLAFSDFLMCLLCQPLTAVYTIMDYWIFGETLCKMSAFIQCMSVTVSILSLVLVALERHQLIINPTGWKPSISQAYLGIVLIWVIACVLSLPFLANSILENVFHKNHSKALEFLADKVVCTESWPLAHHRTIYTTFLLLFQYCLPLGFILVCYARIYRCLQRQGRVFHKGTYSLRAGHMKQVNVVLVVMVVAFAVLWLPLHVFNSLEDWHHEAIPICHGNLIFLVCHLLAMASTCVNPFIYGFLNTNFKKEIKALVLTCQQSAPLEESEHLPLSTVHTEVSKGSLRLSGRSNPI

CCC/N=C(/N)NCCC[C@@H](NC(=O)C(c1ccccc1)c1ccccc1)C(=O)NCc1ccc(O)cc1
Ki [1]: 27 nM

CCNC(=O)/N=C(/N)NCCC[C@@H](NC(=O)C(c1ccccc1)c1ccccc1)C(=O)NCc1ccc(O)cc1
Ki [2]: 0.1 nM

CCOC(=O)CNC(=O)/N=C(/N)NCCC[C@@H](NC(=O)C(c1ccccc1)c1ccccc1)C(=O)NCc1ccc(O)cc1
Ki [2]: 0.1 nM

COC(=O)NC(N)=NCCC[C@@H](NC(=O)C(c1ccccc1)c1ccccc1)C(=O)NCc1ccc(O)cc1
Ki [1]: 33 nM

CC(=O)/N=C(/N)NCCC[C@@H](NC(=O)C(c1ccccc1)c1ccccc1)C(=O)NCc1ccc(O)cc1
Ki [1]: 12 nM

CCC(=O)/N=C(/N)NCCC[C@@H](NC(=O)C(c1ccccc1)c1ccccc1)C(=O)NCc1ccc(O)cc1
pKb [3]: 9.1
Ki [4]: > 10 µM
Ki [5]: 1.2 nM
Ki [6]: > 10 µM
Ki [7]: > 2000 nM
IC50 [2]: 2.24 nM
Kd [2]: 1.2 nM
Ki [2]: 1 nM

[3H]CC([3H])C(=O)/N=C(/N)NCCC[C@@H](NC(=O)C(c1ccccc1)c1ccccc1)C(=O)NCc1ccc(O)cc1 (some centres undefined)
Kd [8]: 1.1 nM
Kd [5]: 2.9 nM
Kd [9]: 1.2 nM
half-life [10]: 2.2 min
Kd [11]: 1.1 nM

CCOC(=O)NC(N)=NCCC[C@@H](NC(=O)C(c1ccccc1)c1ccccc1)C(=O)NCc1ccc(O)cc1
Ki [1]: 4.5 nM
